This note sets out measurements from ChEMBL document CHEMBL1135863, “Antitumor agents. Part 215: antitubulin effects of cytotoxic B-ring modified allocolchicinoids” (Bioorg Med Chem Lett, 2002).

The test system of assay [1] is A9. In words: Cytotoxicity against Beta- tubulin mutant expressing […] cell line of humans was tested. The class given is functional, cell-based. The following applies: Homo sapiens.
In another assay the test system is 1A9. In words: Cytotoxicity against ovarian cancer cell line (1A-9) of humans was determined. The class given is functional, cell-based. To be noted: Homo sapiens.
The subject of assay [2] is KB. In words: The compound was tested for its cytotoxic concentration required to inhibit the replication of human tumor nasopharynx (KB-VIN) cell lines which is drug resistant. The format is functional, cell-based.
Assay [3] concerns KB. In words: The compound was tested for its cytotoxic concentration required to inhibit the replication of human tumor nasopharynx (KB) cell lines. The format is functional, cell-based.
Assay [4] concerns A9. In words: Percentage inhibition at higher concentration (100 nM) against Beta- tubulin mutant expressing […] cell line. The format is functional, Homo sapiens.

As a reminder, the IC50 is the concentration needed to halve the response being measured. The low end stands for greater potency, the high end for weaker potency. Take `COc1cc2c(c(OC)c1OC)-c1ccc(OC)c(=O)cc1[C@@H](NC(C)=O)CC2` [COLCHICINE]: the IC50 in the assay on A9 [1] is 13.8 nM; with 1A9, 11.9 nM; with KB [2], above 100 nM; in the assay on KB [3], 11.9 nM.
For the molecule `COc1ccc2c(c1)[C@@H](NC(=O)CCl)CCc1cc(OC)c(OC)c(OC)c1-2`, the IC50 in the assay on A9 [1] was found to be 13.8 nM; in the assay on 1A9, 2.7 nM; in the assay with KB [2] it was 9.1 nM; in the assay with KB [3], 12 nM.
In the case of `COc1ccc2c(c1)C=CCc1cc(OC)c(OC)c(OC)c1-2`, the IC50 with A9 [1] worked out at 78 nM; in the assay on 1A9, 60 nM; with KB [2], 68 nM; in the assay with KB [3], 60 nM.
A word on the inhibition: it is the share of the control response that was lost under treatment. In the case of `COc1ccc2c(c1)[C@@H]1O[C@@H]1Cc1cc(OC)c(OC)c(OC)c1-2`, the IC50 was above 100 nM in the assay on A9 [1], 82 nM in the assay on 1A9, 62 nM in the assay on KB [2] and 62 nM in the assay with KB [3]. Also, the inhibition at 0.1 µM with A9 [4] came out at 17%.
